Test results taken from US12344623B2, “Thiazolopyridine derivatives as adenosine receptor antagonists” (Merck Patent GmbH, priority 2019, dated 2025).
pIC50: −log10 of the molar value. Where two headings read alike, the source gives them in different places.

Assays:
Type in all cases: cell-based
human A3 receptor = target: T1, human A3 receptor (Homo sapiens, UniProt P0DMS8); test: Functional A3 receptor activity, recombinant CHO cells, cAMP (HTRF), forskolin, agonist IB-MECA; conditions: recombinant CHO cells, forskolin, agonist IB-MECA, read-out: Functional A3 receptor activity, CHO, cAMP, IC50
T1 construct: expressed in transfected cells; host or cells: CHO
T1 sequence (P0DMS8 1-318): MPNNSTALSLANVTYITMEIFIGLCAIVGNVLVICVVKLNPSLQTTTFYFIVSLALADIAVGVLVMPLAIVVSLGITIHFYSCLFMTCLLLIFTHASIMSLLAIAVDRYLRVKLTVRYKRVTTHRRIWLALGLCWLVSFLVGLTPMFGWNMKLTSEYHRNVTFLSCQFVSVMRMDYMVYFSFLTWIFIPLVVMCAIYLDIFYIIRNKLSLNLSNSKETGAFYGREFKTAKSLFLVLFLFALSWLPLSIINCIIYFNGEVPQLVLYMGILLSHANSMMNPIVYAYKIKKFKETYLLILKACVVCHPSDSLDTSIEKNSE
Procedure: (§1) The functional activities of human A2A, A2B, A1 and A3 receptors were determined by quantification of cAMP, being the second messenger for adenosine receptors.
For human A1 and A3 receptors, recombinant CHO cells, expressing either A1 or A3-receptor, were used. As both receptors couple to Gi proteins, the assay protocol was adapted:
(§2) Cells were seeded into 384-well plates, forskolin, test compounds and agonists (CPA for A1- and IB-MECA for A3-receptor) were added. After 30 min incubation, HTRF reagents (cAMP dynamic 2, Cis Bio) were added and the cellular cAMP levels were determined using the ENVISION (Perkin Elmer) plate reader. Obtained raw data were normalized against the inhibitor control and the neural control (DMSO) and the normalized data were fitted using GeneData software.

human A2A receptor = human A2A receptor (Homo sapiens, UniProt P29274); test: Functional A2A receptor activity, recombinant HEK293 cells, cAMP (HTRF), agonist NECA; set-up: expressed in transfected cells; host or cells: HEK293; conditions: read-out: Functional A2A receptor activity, HEK293, cAMP, IC50
Procedure: as §1, §2

human A2B receptor = target: T2, human A2B receptor (Homo sapiens, UniProt P29275); test: Functional A2B receptor activity, recombinant HEK293 cells, cAMP (HTRF), agonist NECA; conditions: read-out: Functional A2B receptor activity, HEK293, cAMP, IC50
T2 construct: expressed in transfected cells; host or cells: HEK293
T2 sequence (P29275 1-332): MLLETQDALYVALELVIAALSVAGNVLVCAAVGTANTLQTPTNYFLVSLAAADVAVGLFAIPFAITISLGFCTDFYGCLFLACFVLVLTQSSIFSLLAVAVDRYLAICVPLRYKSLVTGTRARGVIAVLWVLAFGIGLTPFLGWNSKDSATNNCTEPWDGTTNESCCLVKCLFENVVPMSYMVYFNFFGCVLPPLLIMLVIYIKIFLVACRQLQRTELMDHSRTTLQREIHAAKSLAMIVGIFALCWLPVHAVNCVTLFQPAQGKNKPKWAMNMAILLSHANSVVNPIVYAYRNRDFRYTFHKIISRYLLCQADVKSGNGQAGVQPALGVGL
Procedure: as §1, §2

Sequence of human A2A receptor (P29274 whole entry): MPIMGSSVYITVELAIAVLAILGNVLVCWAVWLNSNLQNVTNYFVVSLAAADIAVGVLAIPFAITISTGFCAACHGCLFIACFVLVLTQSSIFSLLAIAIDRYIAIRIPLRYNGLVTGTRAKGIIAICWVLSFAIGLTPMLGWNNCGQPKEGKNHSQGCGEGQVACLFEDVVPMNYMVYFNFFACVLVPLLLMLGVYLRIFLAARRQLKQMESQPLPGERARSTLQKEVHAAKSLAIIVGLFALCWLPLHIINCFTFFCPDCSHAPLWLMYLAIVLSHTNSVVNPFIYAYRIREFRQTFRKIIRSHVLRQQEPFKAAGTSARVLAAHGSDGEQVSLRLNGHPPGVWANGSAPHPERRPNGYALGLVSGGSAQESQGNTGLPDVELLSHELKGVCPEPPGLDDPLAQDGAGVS

With `COc1ncc(-c2cnn(C[C@H]3CCCCO3)c2)c2sc(NC(=O)N3CCC4(CCOCC4)C3)nc12` [Compound 119, 8-Oxa-2-aza-spiro[4.5]decane-2-carboxylic acid (4-methoxy-7-{1-[(R)-1-(tetrahydro-pyran-2-yl)methyl]-1H-pyrazol-4-yl}-thiazolo[4,5-c]pyridin-2-yl)-amide] the pIC50 (human A3 receptor) was < 6.00, the pIC50 (human A2A receptor) was > 8.00 and the pIC50 (human A2B receptor) was > 7.00.
For `COc1ncc(-c2cnn(C[C@@H]3CCCOC3)c2)c2sc(NC(=O)N3CCC4(CCOCC4)C3)nc12` [Compound 105, 8-Oxa-2-aza-spiro[4.5]decane-2-carboxylic acid (4-methoxy-7-{1-[(S)-1-(tetrahydro-pyran-3-yl)methyl]-1H-pyrazol-4-yl}-thiazolo[4,5-c]pyridin-2-yl)-amide], the pIC50 (human A3 receptor) was < 6.00, the pIC50 (human A2A receptor) was > 8.00 and the pIC50 (human A2B receptor) was > 7.00.
For `COc1ncc(-c2cnn(C(C)(C)c3ccccc3)c2)c2sc(NC(=O)N3CCC4(CCOCC4)C3)nc12` [Compound 163, 8-Oxa-2-aza-spiro[4.5]decane-2-carboxylic acid {4-methoxy-7-[1-(1-methyl-1-phenyl-ethyl)-1H-pyrazol-4-yl]-thiazolo[4,5-c]pyridin-2-yl}-amide], the pIC50 (human A3 receptor) was < 6.00, the pIC50 (human A2A receptor) was > 8.00 and the pIC50 (human A2B receptor) was > 7.00.
With `COc1cnc(N2CCOCC2)c2sc(NC(=O)N3CCC4(CCN(C)C4=O)CC3)nc12` [drawing 186, reference compound] the pIC50 (human A3 receptor; cAMP) was < 6.00, the pIC50 (human A2A receptor) was > 7.00 and the pIC50 (human A2B receptor) was < 6.00.
In the case of `COc1ncc(C2=CCOCC2)c2sc(NC(=O)c3ccc(C(=O)NCCN4CCC4)cc3)nc12` [Compound 139, N-(2-Azetidin-1-yl-ethyl)-N′-[7-(3,6-dihydro-2H-pyran-4-yl)-4-methoxy-thiazolo[4,5-c]pyridin-2-yl]-terephthalamide], the pIC50 (human A3 receptor) was < 6.00, the pIC50 (human A2A receptor) was > 8.00 and the pIC50 (human A2B receptor) was > 7.00.
For `COc1ncc(C2=CCOCC2)c2sc(NC(=O)c3cn[nH]c3)nc12` [Compound 116, N-[7-(3,6-dihydro-2H-pyran-4-yl)-4-methoxy-[1,3]thiazolo[4,5-c]pyridin-2-yl]-1H-pyrazole-4-carboxamide], the pIC50 (human A3 receptor) was > 6.00, the pIC50 (human A2A receptor) was > 8.00 and the pIC50 (human A2B receptor) was > 8.00.
`COc1ncc(-c2cnn(Cc3cccnc3)c2)c2sc(NC(=O)c3ccc(C(=O)O)cc3)nc12` [Compound 115, 4-[(4-methoxy-7-{1-[(pyridin-3-yl)methyl]-1H-pyrazol-4-yl}-[1,3]thiazolo[4,5-c]pyridin-2-yl)carbamoyl]benzoic acid] was tested, and the pIC50 (human A3 receptor) was > 6.00, the pIC50 (human A2A receptor) was > 8.00 and the pIC50 (human A2B receptor) was > 8.00.
For `COc1ncc(-c2ccccc2)c2sc(NC(=O)c3cn[nH]c3)nc12` [Compound 117, N-{4-methoxy-7-phenyl-[1,3]thiazolo[4,5-c]pyridin-2-yl}-1H-pyrazole-4-carboxamide], the pIC50 (human A3 receptor) was > 6.00, the pIC50 (human A2A receptor) was > 8.00 and the pIC50 (human A2B receptor) was > 8.00.
With `COC(=O)N(C)Cc1ccc(C(=O)Nc2nc3c(OC)ncc(C4=CCOCC4)c3s2)cc1` [Compound 167, {4-[7-(3,6-Dihydro-2H-pyran-4-yl)-4-methoxy-thiazolo[4,5-c]pyridin-2-ylcarbamoyl]-benzyl}-methyl-carbamic acid methyl ester] the pIC50 (human A3 receptor) was < 6.00, the pIC50 (human A2A receptor) was > 8.00 and the pIC50 (human A2B receptor) was > 8.00.
`COc1ncc(-c2cnn(C[C@H]3CCCOC3)c2)c2sc(NC(=O)N3CCC4(CCOCC4)C3)nc12` [Compound 104, 8-Oxa-2-aza-spiro[4.5]decane-2-carboxylic acid (4-methoxy-7-{1-[(R)-1-(tetrahydro-pyran-3-yl)methyl]-1H-pyrazol-4-yl}-thiazolo[4,5-c]pyridin-2-yl)-amide] was tested, and the pIC50 (human A3 receptor) was < 6.00, the pIC50 (human A2A receptor) was > 8.00 and the pIC50 (human A2B receptor) was > 7.00.
In the case of `COc1ncc(C2=CCOCC2)c2sc(NC(=O)c3cnn(Cc4ncc[nH]4)c3)nc12` [Compound 158, 1-(1H-Imidazol-2-ylmethyl)-1H-pyrazole-4-carboxylic acid [7-(3,6-dihydro-2H-pyran-4-yl)-4-methoxy-thiazolo[4,5-c]pyridin-2-yl]-amide], the pIC50 (human A3 receptor) was < 6.00, the pIC50 (human A2A receptor) was > 8.00 and the pIC50 (human A2B receptor) was > 8.00.
